Data reported in patent US8802678B2, “Carbonylated (aza) cyclohexanes as dopamine D3 receptor ligands” (Bioprojet, priority 2006, dated 2014).

| melting point [°C] | SMILES |
| --- | --- |
| 132 | CS(=O)(=O)c1cccc(N2CCN(CC[C@H]3CC[C@H](NC(=O)C(F)(F)F)CC3)CC2)c1 [Example 461, 2,2,2-Trifluoro-N-(4-{2-[4-(3-methanesulfonylphenyl)piperazin-1-yl]ethyl}cyclohexyl)acetamide] |
| 140 | COc1cccc(N2CCN(CC[C@H]3CC[C@H](NC(=O)CCC#N)CC3)CC2)c1 [Example 418, 3-Cyano-N-(4-{2-[4-(3-methoxyphenyl)piperazin-1-yl]ethyl}cyclohexyl)propanamide] |
| 82 | CC(=O)CN1CCC(CCN2CCN(c3ccc(F)c(Cl)c3F)CC2)CC1 [Example 623, 1-(4-{2-[4-(3-Chloro-2,4-difluorophenyl)piperazin-1-yl]ethyl}piperidin-1-yl)propan-2-one] |
| 207 | N#CCCCC(=O)N[C@H]1CC[C@H](CCN2CCN(c3ccc(C(F)(F)F)cc3)CC2)CC1 [Example 544, 4-Cyano-N-(4-{2-[4-(4-trifluoromethylphenyl)piperazin-1-yl]ethyl}cyclohexyl)butanamide] |
| 154 | COCC(=O)N[C@H]1CC[C@H](CCN2CCN(c3ccc(F)cc3F)CC2)CC1 [Example 48, N-(4-{2-[4-(2,4-Difluorophenyl)-piperazin-1-yl]ethyl}cyclohexyl)-2-methoxyacetamide] |
| 179 | CC(F)(F)c1cccc(N2CCN(CC[C@H]3CC[C@H](NC(=O)CCCC#N)CC3)CC2)c1 [Example 314, 4-Cyano-N-[4-(2-{4-[3-(1,1-difluoroethyl)phenyl]piperazin-1-yl}ethyl)cyclohexyl]butanamide] |
| 181 | N#CCC(=O)N[C@H]1CC[C@H](CCN2CCN(c3ccc(F)c(C(F)(F)F)c3)CC2)CC1 [Example 277, 2-Cyano-N-(4-{2-[4-(4-fluoro-3-trifluoromethylphenyl)piperazin-1-yl]ethyl}cyclohexyl)acetamide] |
| 217 | COCC(=O)N[C@H]1CC[C@H](CCN2CCN(c3cccc(C(F)(F)F)c3)CC2)CC1.Cl |
| 195 | COCCCC(=O)N[C@H]1CC[C@H](CCN2CCN(c3cc(C)cc(C)c3)CC2)CC1 [Example 715, N-(4-{2-[4-(3,5-Dimethylphenyl)-piperazin-1-yl]ethyl}cyclohexyl)-4-methoxybutanamide] |
| 128 | CCOCC(=O)N[C@H]1CC[C@H](CCN2CCN(c3cc(C(F)(F)F)ccc3F)CC2)CC1 [Example 514, 2-Ethoxy-N-(4-{2-[4-(2-fluoro-5-trifluoromethylphenyl)piperazin-1-yl]ethyl}cyclohexyl)acetamide] |
| 344 | CC(=O)CN1CCC(CCN2CCN(c3cc(C)c(F)cc3Cl)CC2)CC1.Cl.Cl |
| 221 | Cc1cccc(N2CCN(CC[C@H]3CC[C@H](NC(=O)CC#N)CC3)CC2)c1C#N [Example 114, 2-Cyano-N-(4-{2-[4-(2-cyano-3-methylphenyl)piperazin-1-yl]ethyl}cyclohexyl)acetamide] |
| 197 | Cc1ccc(N2CCN(CC[C@H]3CC[C@H](NC(=O)C4=CCCC4)CC3)CC2)cc1Cl [Example 491, Cyclopent-1-enecarboxylic acid (4-{2-[4-(3-chloro-4-methylphenyl)piperazin-1-yl]ethyl}cyclohexyl) amide] |
| 210 | Cc1ccc(N2CCN(CC[C@H]3CC[C@H](NC(=O)CC#N)CC3)CC2)cc1C [Example 340, 2-Cyano-N-(4-{2-[4-(3,4-dimethylphenyl)piperazin-1-yl]ethyl}cyclohexyl)acetamide] |
| 160 | Cc1cc(N2CCN(CC[C@H]3CC[C@H](NC(=O)CCCC#N)CC3)CC2)ccc1F [Example 358] |
| 241 | CC(=O)CN1CCC(CCN2CCN(c3cccc(Oc4ccccc4)c3)CC2)CC1.Cl.Cl |
| 135 | COC(=O)N[C@H]1CC[C@H](CCN2CCN(c3cccc(C(F)(F)F)c3)CC2)CC1 [Example 39, (4-{2-[4-(3-Trifluoromethyl-phenyl)piperazin-1-yl]ethyl}cyclo-hexyl)carbamic acid methyl ester] |
| 180 | N#CCCCC(=O)N[C@H]1CC[C@H](CCN2CCN(c3cccc4cccnc34)CC2)CC1 [Example 262, 4-Cyano-N-{4-[2-(4-quinolin-8-ylpiperazin-1-yl)ethyl]cyclohexyl}butanamide] |
| 138 to 139 | N#CCCCC(=O)N[C@H]1CC[C@H](CCN2CCN(c3cc(C(F)(F)F)ccc3F)CC2)CC1 [Example 207, 4-Cyano-N-(4-{2-[4-(2-fluoro-5-trifluoromethylphenyl)piperazin-1-yl]ethyl}cyclohexyl)butanamide] |
| 138 | COCC(=O)N[C@H]1CC[C@H](CCN2CCN(c3cccc(C#N)c3)CC2)CC1 [Example 86, N-(4-{2-[4-(3-Cyanophenyl)piperazin-1-yl]ethyl}cyclohexyl)-2-methoxyacetamide] |
| 220 | N#CCC(=O)N[C@H]1CC[C@H](CCN2CC=C(c3ccc(Cl)cc3)CC2)CC1 |
| 185 | N#CCCCC(=O)N[C@H]1CC[C@H](CCN2CC=C(c3ccc(C(F)(F)F)cc3)CC2)CC1 |

| melting point [°C] | SMILES |
| --- | --- |
| 287 | CC(=O)CN1CCC(CCN2CCN(c3cc(C(F)(F)F)nc(C(C)(C)C)n3)CC2)CC1.Cl.Cl.Cl |
| 214 | CS(=O)(=O)CC(=O)N[C@H]1CC[C@H](CCN2CCN(c3ccc(Cl)cc3)CC2)CC1 [Example 427, N-(4-{2-[4-(4-Chlorophenyl)-piperazin-1-yl]ethyl}cyclohexyl)-2-methanesulfonylacetamide] |
| 75 | CC(=O)CN1CCC(CCN2CCN(c3ccc4c(c3)CCCC4)CC2)CC1 [Example 576] |
| 160 | COc1cccc(N2CCN(CC[C@H]3CC[C@H](NC(=O)C4=CCCC4)CC3)CC2)c1 [Example 417, Cyclopent-1-enecarboxylic acid (4-{2-[4-(3-methoxyphenyl)-piperazin-1-yl]ethyl}cyclohexyl) amide] |
| 161 | COCCCC(=O)N[C@H]1CC[C@H](CCN2CCN(c3ccc(C)c(C)c3)CC2)CC1 [Example 506, N-(4-{2-[4-(3,4-Dimethylphenyl)piperazin-1-yl]ethyl}cyclohexyl)-4-methoxybutanamide] |
| 177 | COCCCC(=O)N[C@H]1CC[C@H](CCN2CCN(c3cc(F)cc(Cl)c3)CC2)CC1 [Example 740, N-(4-{2-[4-(3-Chloro-5-fluorophenyl)piperazin-1-yl]ethyl}cyclohexyl)-4-methoxybutanamide] |
| 68 | CCC(=O)c1cccc(N2CCN(CCC3CCN(CC(C)=O)CC3)CC2)c1 [Example 604, 1-[3-(4-{2-[1-(2-Oxopropyl)piperidin-4-yl]ethyl}piperazin-1-yl)phenyl]propan-1-one] |
| 164 | COCC(=O)N[C@H]1CC[C@H](CCN2CCN(c3cc(C(F)(F)F)cc(C(F)(F)F)c3)CC2)CC1 [Example 118, N-(4-{2-[4-(3,5-Bistrifluoro-methylphenyl)piperazin-1-yl]ethyl}cyclohexyl)-2-methoxyacetamide] |
| 192 | Cc1ccc(N2CCN(CC[C@H]3CC[C@H](NC(=O)CC(F)(F)F)CC3)CC2)cc1Cl [Example 492, N-(4-{2-[4-(3-Chloro-4-methylphenyl)piperazin-1-yl]ethyl}cyclohexyl)-3,3,3-trifluoropropanamide] |
| 237 | CC(=O)CN1CCC(CCN2CCN(c3cccc(OC(C)C)c3)CC2)CC1.Cl.Cl |
| 178 | N#CCCCC(=O)N[C@H]1CC[C@H](CCN2CCN(c3ccc(F)c(F)c3F)CC2)CC1 [Example 451, 4-Cyano-N-(4-{2-[4-(2,3,4-trifluorophenyl)piperazin-1-yl]ethyl}cyclohexyl)butanamide] |
| 153 | COCC(=O)N[C@H]1CC[C@H](CCN2CCN(c3cc(F)c(F)c(F)c3)CC2)CC1 [Example 542, 2-Methoxy-N-(4-{2-[4-(3,4,5-trifluorophenyl)piperazin-1-yl]ethyl}cyclohexyl)acetamide] |
| 157 to 159 | CCOc1cccc(N2CCN(CC[C@H]3CC[C@H](NC(=O)CC#N)CC3)CC2)c1 [Example 170, 2-Cyano-N-(4-{2-[4-(3-ethoxyphenyl)piperazin-1-yl]ethyl}cyclohexyl)acetamide] |
| 208 | N#CCC(=O)N[C@H]1CC[C@H](CCN2CCN(c3ccc4c(c3)OCCO4)CC2)CC1 [Example 316, 2-Cyano-N-(4-{2-[4-(2,3-dihydrobenzo[1,4]dioxin-6-yl)piperazin-1-yl]ethyl}cyclohexyl)acetamide] |
| 166 | O=C(N[C@H]1CC[C@H](CCN2CC=C(c3ccc(F)cc3F)CC2)CC1)C1=CCCC1 |
| 164 | COc1ccc(C)cc1N1CCN(CC[C@H]2CC[C@H](NC(=O)CCCC#N)CC2)CC1 [Example 483, 4-Cyano-N-(4-{2-[4-(2-methoxy-5-methylphenyl)piperazin-1-yl]ethyl}cyclohexyl)butanamide] |
| 210 to 211 | O=C(N[C@H]1CC[C@H](CCN2CCN(c3ccccc3F)CC2)CC1)C1=CCCC1 [Example 68, Cyclopent-1-enecarboxylic acid (4-{2-[4-(2-fluorophenyl)-piperazin-1-yl]ethyl}-cyclohexyl)amide] |
| 162 | CCOCC(=O)N[C@H]1CC[C@H](CCN2CCN(c3ccc(C)c(Cl)c3)CC2)CC1.Cl |
| 160 | N#CCCCC(=O)N[C@H]1CC[C@H](CCN2CCN(c3ccccc3C#N)CC2)CC1 [Example 377, 4-Cyano-N-(4-{2-[4-(2-cyanophenyl)piperazin-1-yl]ethyl}cyclohexyl)butanamide] |
| 220 | Cc1ccc(N2CCN(CC[C@H]3CC[C@H](NC(=O)C4=CCCC4)CC3)CC2)cc1F [Example 537, Cyclopent-1-enecarboxylic acid (4-{2-[4-(3-fluoro-4-methylphenyl)piperazin-1-yl]ethyl}cyclohexyl) amide] |
| 160 | N#CCCC(=O)N[C@H]1CC[C@H](CCN2CCN(c3cccc(C#N)c3)CC2)CC1 [Example 644, 3-Cyano-N-(4-{2-[4-(3-cyanophenyl)piperazin-1-yl]ethyl}cyclohexyl)propanamide] |
| 104 | CC(=O)CN1CCC(CCN2CCN(c3ccc(C(F)(F)F)cc3)CC2)CC1 [Example 587, 1-(4-{2-[4-(4-Trifluoromethylphenyl)piperazin-1-yl]ethyl}pipericin-1-yl)propan-2-one] |
